Results: patent publication US10815264B2, “Nucleotides for the treatment of cancer” (IDENIX PHARMACEUTICALS LLC, priority 2015, dated 2020)
pIC50: −log10 of the molar value. Like-named read-outs stand apart in the source and are kept apart here.

Columns and labels:
Test in all cases: In vitro inhibition, CellTiter-Glo (CTG) assay, 72 hr exposure
Type in all cases: cell-based
MDA-MB-231 = conditions: MDA-MB-231, 72 hr
Method: (§1) Cells were grown in RPMI-1640 supplemented with L-Glutamine and 10% FBS of the following cell lines:
(§2) CCRF-CEM; CCRF-CEM-cytarabine resistant; HL-60; K562; CFPAC-1; MiaPACA-2; BxPC-3; PANC-1; HepG2; MDA-MB-231; HCT-116; A498; and NCI-H69
(§3) 18, 96 well plates of each cell line were seeded with the optimized number of cells per well in a total volume of 50 μL per well. The plates were left overnight. Plate wells were seeded with 100 μL media for media control. The following day, cells were exposed to test compounds as described below. At the same time as drug exposure, a CTG assay was conducted on the 18th plate for the 0 hr count.
(§4) The compounds were added to cells and medium already on the plate to give desired final concentrations. 50 μL media were added to cell control wells, and 50 μL of mix added to vehicle control wells. 10 μM Doxorubicin was added to appropriate wells. Cells exposed to test compound were incubated at 37° C. for 72 hr followed by a CTG assay.
(§5) At the end of the 72 hr exposure period, plates were removed for a CellTiter-Glo (CTG) assay from a 37° C., 5% CO2 incubator and placed on the bench at room temperature for 30 mins. 100 μL of CellTiter-Glo reagent was added and mixed for 2 mins, followed by a further 10 min incubation at room temperature. Luminescence was recorded using Synergy 4.0.

BxPC-3 = test system: BxPC-3
Method: as §1, §2, §3, §4, §5

[1] = test system: CCRF-CEM-cytarabine resistant
Method: as §1, §2, §3, §4, §5

HL-60 = test system: HL-60
Method: as §1, §2, §3, §4, §5

K562 = conditions: K562, 72 hr
Method: as §1, §2, §3, §4, §5

HepG2 = test system: HepG2
Method: as §1, §2, §3, §4, §5

CCRF-CEM = test system: CCRF-CEM
Method: as §1, §2, §3, §4, §5

MiaPACA-2 = test system: MiaPACA-2
Method: as §1, §2, §3, §4, §5

A498 = test system: A498
Method: as §1, §2, §3, §4, §5

CFPAC-1 = test system: CFPAC-1
Method: as §1, §2, §3, §4, §5

HCT-116 = test system: HCT-116
Method: as §1, §2, §3, §4, §5

NCI-H69 = test system: NCI-H69
Method: as §1, §2, §3, §4, §5

PANC-1 = conditions: PANC-1, 72 hr
Method: as §1, §2, §3, §4, §5

[2] = Homo sapiens, MIA PaCa-2, MiaPACA-2, 72 hr

SMILES	pIC50 (MDA-MB-231)	pIC50 (BxPC-3; BxPC-3, 72 hr)	pIC50 [1]	pIC50 (HL-60; HL-60, 72 hr)	pIC50 (K562)	pIC50 (HepG2; HepG2, 72 hr)	pIC50 (CCRF-CEM)	pIC50 (MiaPACA-2; MiaPACA-2, 72 hr)	pIC50 (A498; A498, 72 hr)	pIC50 (CFPAC-1; CFPAC-1, 72 hr)	pIC50 (HCT-116; HCT-116, 72 hr)	pIC50 (NCI-H69; NCI-H69, 72 hr)	pIC50 (PANC-1)	pIC50 (MDA-MB-231; Homo sapiens)	pIC50 (BxPC-3; Homo sapiens, BXPC-3, 72 h)	pIC50 (HL-60; Homo sapiens, HL-60, 72 h)	pIC50 (K562; Homo sapiens)	pIC50 (CCRF-CEM; Homo sapiens, 72 h)	pIC50 (MiaPACA-2; [2])	pIC50 (PANC-1; Homo sapiens)	other results
COC(=O)COP(=O)(N[C@@H](CC(C)C)C(=O)OC)OC[C@H]1S[C@@H](n2ccc(N)nc2=O)[C@@H](O)[C@@H]1O (single isomer, unassigned) [Compound 104b (diastereoisomer 2)]	4.00 to 5.00	4.00 to 5.00	4.00 to 5.00	> 6.00	4.00 to 5.00	4.00 to 5.00	> 6.00	4.00 to 5.00	4.00 to 5.00	4.00 to 5.00	4.00 to 5.00	4.00 to 5.00	4.00 to 5.00								
Nc1ccn([C@@H]2S[C@H](COP(=O)(O)NCc3ccccc3)[C@@H](O)[C@@H]2O)c(=O)n1 [Compound 107, [(2R,3S,4S,5R)-5-(4-amino-2-oxo-pyrimidin-1-yl)-3,4-dihydroxy-tetrahydrothiophen-2-yl]methoxy-N-benzyl-phosphonamidic acid]			4.00 to 5.00											4.00 to 5.00	4.00 to 5.00	5.00 to 6.00	4.00 to 5.00	5.00 to 6.00	5.00 to 6.00	4.00 to 5.00	pIC50 (HepG2; Homo sapiens, HepG2, 72 h): 5.00 to 6.00; pIC50 (A498; Homo sapiens, A498, 72 h): 4.00 to 5.00; pIC50 (CFPAC-1; Homo sapiens, CFPAC-1, 72 h): 4.00 to 5.00; pIC50 (HCT-116; Homo sapiens, HCT-116, 72 h): 4.00 to 5.00; pIC50 (NCI-H69; Homo sapiens, NCI-H69, 72 h): 4.00 to 5.00
Cn1c(COP(=O)(NCc2ccccc2)O[C@H]2[C@H](O)[C@H](n3ccc(N)nc3=O)S[C@@H]2CO)cnc1[N+](=O)[O-] (mixture of isomers) [Compound 106b (mixture of diastereoisomers), 4-amino-1-[(2R,3S,4S,5R)-4-[(benzylamino)-[(3-methyl-2-nitro-imidazol-4-yl)methoxy]phosphoryl]oxy-3-hydroxy-5-(hydroxymethyl)tetrahydrothiophen-2-yl]pyrimidin-2-one]			4.00 to 5.00											4.00 to 5.00	4.00 to 5.00	4.00 to 5.00	4.00 to 5.00	4.00 to 5.00	4.00 to 5.00	4.00 to 5.00	pIC50 (HepG2; Homo sapiens, HepG2, 72 h): 4.00 to 5.00; pIC50 (A498; Homo sapiens, A498, 72 h): 4.00 to 5.00; pIC50 (CFPAC-1; Homo sapiens, CFPAC-1, 72 h): 4.00 to 5.00; pIC50 (HCT-116; Homo sapiens, HCT-116, 72 h): 4.00 to 5.00; pIC50 (NCI-H69; Homo sapiens, NCI-H69, 72 h): 4.00 to 5.00
CCOC(=O)COP(=O)(N[C@@H](CC(C)C)C(=O)OCC)OC[C@H]1S[C@@H](n2ccc(N)nc2=O)[C@@H](O)[C@@H]1O (single isomer, unassigned) [Compound 102b (diastereoisomer 2)]	4.00 to 5.00	4.00 to 5.00	4.00 to 5.00	5.00 to 6.00	4.00 to 5.00	4.00 to 5.00	> 6.00	4.00 to 5.00	4.00 to 5.00	4.00 to 5.00	4.00 to 5.00	4.00 to 5.00	4.00 to 5.00								
CC(C)(C)SSCCOP(=O)(NCc1ccccc1)OC[C@H]1S[C@@H](n2ccc(N)nc2=O)[C@@H](O)[C@@H]1O (single isomer, unassigned) [Compound 105 (diastereoisomer 2)]	4.00 to 5.00	4.00 to 5.00	4.00 to 5.00	4.00 to 5.00	4.00 to 5.00	4.00 to 5.00	4.00 to 5.00	5.00 to 6.00	4.00 to 5.00	4.00 to 5.00	4.00 to 5.00	4.00 to 5.00	4.00 to 5.00								
COC(=O)COP(=O)(N[C@@H](CC(C)C)C(=O)OC)OC[C@H]1S[C@@H](n2ccc(N)nc2=O)[C@@H](O)[C@@H]1O (single isomer, unassigned) [Compound 104b (diastereoisomer 1)]			4.00 to 5.00			5.00 to 6.00								4.00 to 5.00	4.00 to 5.00	5.00 to 6.00	4.00 to 5.00	> 6.00	4.00 to 5.00	4.00 to 5.00	pIC50 (A498; Homo sapiens, A498, 72 h): 4.00 to 5.00; pIC50 (CFPAC-1; Homo sapiens, CFPAC-1, 72 h): 4.00 to 5.00; pIC50 (HCT-116; Homo sapiens, HCT-116, 72 h): 4.00 to 5.00; pIC50 (NCI-H69; Homo sapiens, NCI-H69, 72 h): 4.00 to 5.00
Nc1ccn([C@@H]2S[C@H](COP(=O)(NCc3ccccc3)OCc3ccc([N+](=O)[O-])o3)[C@@H](O)[C@@H]2O)c(=O)n1 (single isomer, unassigned) [Compound 103 (diastereoisomer 2)]	4.00 to 5.00	5.00 to 6.00	5.00 to 6.00	> 6.00	5.00 to 6.00	5.00 to 6.00	> 6.00	5.00 to 6.00	5.00 to 6.00	5.00 to 6.00	5.00 to 6.00	5.00 to 6.00	4.00 to 5.00								
Nc1ccn([C@@H]2S[C@H](COP(=O)(NCc3ccccc3)OCc3ccc([N+](=O)[O-])o3)[C@@H](O)[C@@H]2O)c(=O)n1 (single isomer, unassigned) [Compound 103 (diastereoisomer 1)]		4.00 to 5.00	5.00 to 6.00						4.00 to 5.00	4.00 to 5.00	4.00 to 5.00	4.00 to 5.00		4.00 to 5.00		> 6.00	5.00 to 6.00	> 6.00	5.00 to 6.00	4.00 to 5.00	pIC50 (HepG2; Homo sapiens, HepG2, 72 h): 5.00 to 6.00
CC(C)OC(=O)[C@H](C)NP(=O)(OC[C@H]1S[C@@H](n2ccc(N)nc2=O)[C@@H](O)[C@@H]1O)Oc1ccccc1 (single isomer, unassigned) [Compound 101b (diastereoisomer 1)]		4.00 to 5.00	4.00 to 5.00	5.00 to 6.00	4.00 to 5.00	4.00 to 5.00	> 6.00	4.00 to 5.00		4.00 to 5.00	4.00 to 5.00			4.00 to 5.00						4.00 to 5.00	pIC50 (A498; Homo sapiens, A498, 72 hr): 4.00 to 5.00; pIC50 (NCI-H69; Homo sapiens, NCI-H69, 72 hr): 4.00 to 5.00
CC(=O)OC[C@H](C)NP1(=O)OC[C@H]2S[C@@H](n3ccc(N)nc3=O)[C@@H](O)[C@@H]2O1 (single isomer, unassigned) [Compound 108b (diastereoisomer 1)]			4.00 to 5.00											4.00 to 5.00	4.00 to 5.00	4.00 to 5.00	4.00 to 5.00	4.00 to 5.00	4.00 to 5.00	4.00 to 5.00	pIC50 (HepG2; Homo sapiens, HepG2, 72 h): 4.00 to 5.00; pIC50 (A498; Homo sapiens, A498, 72 h): 4.00 to 5.00; pIC50 (CFPAC-1; Homo sapiens, CFPAC-1, 72 h): 4.00 to 5.00; pIC50 (HCT-116; Homo sapiens, HCT-116, 72 h): 4.00 to 5.00; pIC50 (NCI-H69; Homo sapiens, NCI-H69, 72 h): 4.00 to 5.00
